Measurements as given in patent publication US20220249441A1, “Homodimeric Tobramycin Adjuvant Repurposes Novobiocin as an Effective Antibacterial Agent Against Gram-Negative Bacteria” (priority 2019, published 2022).
Where two headings read alike, the source gives them in different places.

How the values were obtained:
P. aeruginosa = test: Checkerboard assay (antibiotic + adjuvant combination MIC); type: cell-based, Pseudomonas aeruginosa; settings: Pseudomonas aeruginosa, read-out: MIC of Novobiocin Alone
A. baumannii = test: as above; type: cell-based, Acinetobacter baumannii; settings: Acinetobacter baumannii, read-out: MIC of Novobiocin Alone
Experimental: (§1) Antimicrobial Susceptibility Assay. The in vitro antimicrobial activity of all compounds/antibiotics against a panel of bacteria was evaluated by microbroth dilution method in accordance with the Clinical and Laboratory Standards Institute (CLSI) guidelines (using ATCC strains as quality control strains) (54). Overnight grown bacterial cultures were diluted in saline to achieve a 0.5 McFarland turbidity, followed by 1:50 dilution in Mueller-Hinton broth (MHB) for inoculation to a final concentration of approximately 5×10^5 CFU/mL. […] The lowest concentration that prevented the visible growth of bacteria was defined as the MIC for each antimicrobial agent. The broth with or without bacterial cells was used as positive or negative control, respectively.
(§2) Checkerboard Assay. Combination studies with different antibiotics were performed in 96-well plates as previously described (19). Briefly, the antibiotic of interest was serially diluted in MHB along the abscissa while the adjuvant (tobramycin homodimer) was serially diluted in MHB along the ordinate. This creates a 10×7 matrices wherein each well consists of a combination of different antibiotic and adjuvant concentrations. Overnight grown bacterial cultures were diluted in saline to achieve a 0.5 McFarland turbidity, followed by 1:50 dilution in Mueller-Hinton broth (MHB) for inoculation to a final concentration of approximately 5×10^5 CFU/mL. […] MIC was recorded as wells with the lowest concentration of drugs with no bacterial growth. The fractional inhibitory concentration (FIC) for each antibiotic was calculated by dividing the MIC of the antibiotic in the presence of adjuvant by the MIC of the antibiotic alone. Similarly, the FIC of adjuvant was calculated by dividing the MIC of the adjuvant in the presence of antibiotic by the MIC of the adjuvant alone. FIC index is the sum of both FICs. FIC indices of ≤0.5 were deemed synergistic; >0.5-4, no interaction; and >4, antagonistic.

E. coli = test: as above; type: cell-based, Escherichia coli; settings: Escherichia coli, read-out: MIC of Novobiocin Alone
Experimental: as §1, §2

K. pneumoniae = test: as above; type: cell-based, Klebsiella pneumoniae; settings: for MIC: Klebsiella pneumoniae, read-out: MIC of Novobiocin Alone
Experimental: as §1, §2

E. cloacae = test: as above; type: cell-based, Enterobacter cloacae; settings: Enterobacter cloacae, read-out: MIC of Novobiocin Alone
Experimental: as §1, §2

E. faecium ATCC 27270 = test: MIC and combination against Gram-positive bacteria; type: cell-based; settings: Enterococcus faecium, ATCC27270
Experimental: (§3) Next, we investigated whether tobramycin by itself would potentiate novobiocin against Gram-negative bacteria.
as §1

MRSA ATCC 33592 = test: MIC and combination against Gram-positive bacteria; type: cell-based; settings: Staphylococcus aureus
Experimental: as §3, §1

MRSE 61589 = test: MIC and combination against Gram-positive bacteria; type: cell-based; settings: Staphylococcus epidermidis
Experimental: as §3, §1

MDR A. baumannii = test: Galleria mellonella in vivo larvae-infection model; settings: single dose 100 mg/kg, agent alone; after 24 h
Experimental: Galleria mellonella In vivo Larvae-Infection Model. In vivo synergistic effects were determined using Galleria mellonella infection model, as previously described (49). Briefly, larvae were purchased from The Worm Lady Live Feeder (ON, Canada), stored in their natural habitat at 16° C., and used within 10 days of delivery. The larvae (average weight of 250 mg) were used for tolerability and efficacy studies. Tolerability study was performed by injecting a 10 μL aliquot of antimicrobial agents only at concentrations equivalent to 100 mg/kg or 200 mg/kg. The larvae (ten in each group) were incubated at 37° C. and monitored for 96 h. For efficacy studies, the virulence and bacterial load required to kill 100% of the larvae within 24 h (with no treatment) was first determined, which is approximately 10 CFU. Overnight grown culture of respective MDR A. baumannii isolate was standardized to 0.5 McFarland standard and diluted in PBS to a final concentration of 10^3 CFU/mL. A 10 μL aliquot of this solution (˜10 CFU) was injected into each larva and incubated for 3 h at 37° C. […] Larvae treated with 10 μL of PBS or high concentrations of test antibiotics served as negative and positive control, respectively. The larvae were incubated at 37° C. in Petri dishes lined with filter paper and scored for survivability every 6 h for up to 36 h. […]

E. coli ATCC 25922 = test: Time-kill assay; type: cell-based, Escherichia coli; settings: novobiocin 32 μg/ml, compound 1 7.1 μM
Experimental: Time-kill Assay. […] At specific time intervals (0, 1, 3, 6, 9, and 24 h), 100 μl was taken from each sample, serially diluted in sterile PBS, plated on LB agar plates, and incubated at 37° C. in a humid 5% CO2-enriched atmosphere. Bacterial colonies were counted after 20 h of incubation.

A. baumannii ATCC 17978 = test: microbe, parasite or virus in culture; type: cell-based, Acinetobacter baumannii
Experimental: Development of Resistance Study. […] Tobramycin and colistin were included as controls. At 24-hour intervals, the cultures were assessed for growth. […] This serial passaging was repeated for 8 days.

Molecule `CO[C@@H]1[C@@H](OC(N)=O)[C@@H](O)[C@H](Oc2ccc3c(O)c(NC(=O)c4ccc(O)c(CC=C(C)C)c4)c(=O)oc3c2C)OC1(C)C` [Novobiocin] has an MIC (P. aeruginosa; P. aeruginosa 259-96918) of 512 µg/mL, an MIC (P. aeruginosa; P. aeruginosa 260-97103) of 256 µg/mL and an MIC (P. aeruginosa; P. aeruginosa 262-101856) of 512 µg/mL. It also gave an MIC (P. aeruginosa; P. aeruginosa 264-104354) of 512 µg/mL, an MIC (P. aeruginosa; P. aeruginosa 91433) of 16 µg/mL and an MIC (P. aeruginosa; P. aeruginosa 100036) of 1020 µg/mL. The MIC (P. aeruginosa; P. aeruginosa 101243) was 128 µg/mL, the MIC (P. aeruginosa; P. aeruginosa 101885) was 1020 µg/mL and the MIC (P. aeruginosa; P. aeruginosa 114228) was 512 µg/mL. It also gave an MIC (P. aeruginosa; PA 91433) of 16 µg/mL, an MIC (P. aeruginosa; PA 101243) of 128 µg/mL and an MIC (P. aeruginosa; PA 114228) of 512 µg/mL. For the same molecule, the MIC (P. aeruginosa; PAO1, P. aeruginosa PAO1) was 512 µg/mL, the MIC (P. aeruginosa; PAO1, PAO1 (wild-type)) was 512 µg/mL and the MIC (P. aeruginosa; PAO1, PAO1) was 512 µg/mL. The MIC (P. aeruginosa; PAO200 (efflux-deficient)) was 32 µg/mL, the MIC (P. aeruginosa; PAO750 (efflux-deficient)) was 32 µg/mL and the MIC (A. baumannii; A. baumannii 027) was 8 µg/mL. It also gave an MIC (A. baumannii; A. baumannii 031) of 8 µg/mL, an MIC (A. baumannii; A. baumannii 92247) of 4 µg/mL and an MIC (A. baumannii; A. baumannii LAC-4) of 8 µg/mL. The MIC (A. baumannii; AB 92247) was 4 µg/mL, the MIC (A. baumannii; ATCC17978, A. baumannii ATCC 17978) was 16 µg/mL and the MIC (A. baumannii; A. baumannii 110193) was 256 µg/mL. It also gave an MIC (E. coli; ATCC25922, E. coli ATCC 25922) of 64 µg/mL, an MIC (E. coli; E. coli 94393) of 128 µg/mL and an MIC (E. coli; E. coli 94474) of 256 µg/mL. For the same molecule, the MIC (E. coli; E. coli 107115) was 128 µg/mL, the “MIC of Novobiocin Alone” value (K. pneumoniae) was 256 µg/mL and the MIC (K. pneumoniae; K. pneumoniae 113250) was 512 µg/mL. For the same molecule, the MIC (K. pneumoniae; K. pneumoniae 113254) was 256 µg/mL, the MIC (K. pneumoniae; K. pneumoniae 116381) was 1020 µg/mL and the MIC (E. cloacae; E. cloacae 117029) was 1020 µg/mL. It also gave an MIC (E. cloacae; E. cloacae 118568) of 1020 µg/mL, an MIC (E. cloacae; E. cloacae 121187) of 64 µg/mL and an MIC (E. cloacae; EC 118568) of 1020 µg/mL. The MIC (E. faecium ATCC 27270) was 2 µg/mL, the MIC (MRSA ATCC 33592) was 0.125 µg/mL and the MIC (MRSE 61589) was 0.0625 µg/mL. For the same molecule, the “mortality of infected larvae” value (MDR A. baumannii) was 100%, the “incubation time after which bactericidal” value (E. coli ATCC 25922) was 24 h and the “fold change in MIC” value (A. baumannii ATCC 17978; after 3 days of serial passaging) was 64 fold. For the same molecule, the “fold change in MIC” value (A. baumannii ATCC 17978; after 5 days of serial passaging) was 256 fold.
